Assay results taken from ChEMBL document CHEMBL3045203, “Synthesis and biological evaluation of some N4-substituted 5-nitroisatin-3-thiosemicarbazones” (Med Chem Res, 2012).
The source made the active and inactive calls. The calls are words filed in the database; no cut-off is given here.

Key:
Homo sapiens [1] = organism: Homo sapiens; test: Inhibition of […] urease using urea as substrate at 0.01 uM preincubated for 5 min before substrate addition measured after 10 min relative to control
Homo sapiens [2] = organism: Homo sapiens; test: Inhibition of […] urease using urea as substrate at 100 uM preincubated for 5 min before substrate addition measured after 10 min relative to control
Microsporum canis = test: Antifungal activity against Arthroderma otae at 200 ug/ml after 7 days; assay type: functional; details: 168 h
Lemna aequinoctialis [3] = test: Phytotoxicity against Lemna aequinoctialis assessed as growth inhibition at 10 ug/ml; assay type: functional; details: read-out: GI
Candida albicans = test: Antifungal activity against Candida albicans at 200 ug/ml after 7 days; assay type: functional; details: 168 h
Homo sapiens [4] = organism: Homo sapiens; test: Inhibition of […] urease using urea as substrate at 0.1 uM preincubated for 5 min before substrate addition measured after 10 min relative to control
Fusarium solani = test: Antifungal activity against Fusarium solani at 200 ug/ml after 7 days; assay type: functional; details: 168 h
Lemna aequinoctialis [5] = test: Phytotoxicity against Lemna aequinoctialis assessed as growth inhibition at 100 ug/ml; assay type: functional; details: read-out: GI
Aspergillus flavus = test: Antifungal activity against Aspergillus flavus at 200 ug/ml after 7 days; assay type: functional; details: 168 h
[6] = Toxicity inArtemia salina (brine shrimp) larvae assessed as mortality after 24 hr; assay type: organism-based; details: artemia salina, in vivo; read-out: LD50
Homo sapiens [7] = organism: Homo sapiens; test: Inhibition of […] urease using urea as substrate at 1 uM preincubated for 5 min before substrate addition measured after 10 min relative to control
Nakaseomyces glabratus = test: Antifungal activity against Candida glabrata at 200 ug/ml after 7 days; assay type: functional; details: 168 h
Homo sapiens [8] = organism: Homo sapiens; test: Inhibition of […] urease using urea as substrate at 10 uM preincubated for 5 min before substrate addition measured after 10 min relative to control
Lemna aequinoctialis [9] = test: Phytotoxicity against Lemna aequinoctialis assessed as growth inhibition at 1000 ug/ml; assay type: functional; details: read-out: GI
[10] = Inhibition of […] urease using urea as substrate preincubated for 5 min before substrate addition measured after 10 min
Homo sapiens [11] = organism: Homo sapiens; test: Increase of […] urease using urea as substrate at 10 uM preincubated for 5 min before substrate addition measured after 10 min relative to control
Homo sapiens [12] = organism: Homo sapiens; test: Increase of […] urease using urea as substrate at 0.1 uM preincubated for 5 min before substrate addition measured after 10 min relative to control
Homo sapiens [13] = organism: Homo sapiens; test: Increase of […] urease using urea as substrate at 1 uM preincubated for 5 min before substrate addition measured after 10 min relative to control
Homo sapiens [14] = organism: Homo sapiens; test: Increase of […] urease using urea as substrate at 0.01 uM preincubated for 5 min before substrate addition measured after 10 min relative to control
Homo sapiens [15] = organism: Homo sapiens; test: Increase of […] urease using urea as substrate at 100 uM preincubated for 5 min before substrate addition measured after 10 min relative to control
Lemna aequinoctialis [16] = test: Phytotoxicity against Lemna aequinoctialis assessed as growth inhibition at 500 ug/ml; assay type: functional; details: read-out: GI
Lemna aequinoctialis [17] = test: Phytotoxicity against Lemna aequinoctialis assessed as growth inhibition at 50 ug/ml; assay type: functional; details: read-out: GI
Lemna aequinoctialis [18] = test: Phytotoxicity against Lemna aequinoctialis assessed as growth inhibition at 5 ug/ml; assay type: functional; details: read-out: GI

`Cc1cccc(NC(=S)N/N=C2\C(=O)Nc3ccc([N+](=O)[O-])cc32)c1` gave an inhibition (Homo sapiens [1]) of 6.5%, an inhibition (Homo sapiens [2]) of 34% and an inhibition at 200 µg/mL (Microsporum canis) of 0%. The inhibition of growth at 10 µg/mL (Lemna aequinoctialis [3]) was 10%, the inhibition at 200 µg/mL (Candida albicans) was 0% and the inhibition (Homo sapiens [4]) was 5.8%. The inhibition at 200 µg/mL (Fusarium solani) was 30%, the inhibition of growth at 100 µg/mL (Lemna aequinoctialis [5]) was 20% and the inhibition at 200 µg/mL (Aspergillus flavus) was 0%. The LC50 at 24 h [6] was greater than 1400 µM, the inhibition (Homo sapiens [7]) was 13.9% and the inhibition at 200 µg/mL (Nakaseomyces glabratus) was 0%. The inhibition (Homo sapiens [8]) was 22% and the inhibition of growth at 1000 µg/mL (Lemna aequinoctialis [9]) was 25%.
`CCCCCCNC(=S)N/N=C1\C(=O)Nc2ccc([N+](=O)[O-])cc21` gave an inhibition (Homo sapiens [1]) of 60%, an inhibition (Homo sapiens [2]) of 40.9% and an inhibition at 200 µg/mL (Microsporum canis) of 50%. For the same molecule, the inhibition of growth at 10 µg/mL (Lemna aequinoctialis [3]) was 25%, the inhibition at 200 µg/mL (Candida albicans) was 0% and the inhibition (Homo sapiens [4]) was 58%. For the same molecule, the inhibition at 200 µg/mL (Fusarium solani) was 0%, the inhibition of growth at 100 µg/mL (Lemna aequinoctialis [5]) was 35% and the IC50 [10] was 0.44 µM. For the same molecule, the inhibition at 200 µg/mL (Aspergillus flavus) was 0%, the LC50 at 24 h [6] was greater than 1430 µM and the inhibition (Homo sapiens [7]) was 37%. The inhibition at 200 µg/mL (Nakaseomyces glabratus) was 0%, the inhibition (Homo sapiens [8]) was 27% and the inhibition of growth at 1000 µg/mL (Lemna aequinoctialis [9]) was 60%.
With `COc1ccc(NC(=S)N/N=C2\C(=O)Nc3ccc([N+](=O)[O-])cc32)c(OC)c1` the inhibition (Homo sapiens [1]) was 68%, the inhibition (Homo sapiens [2]) was 37.9% and the inhibition at 200 µg/mL (Microsporum canis) was 20%. The inhibition of growth at 10 µg/mL (Lemna aequinoctialis [3]) was 15%, the inhibition at 200 µg/mL (Candida albicans) was 0% and the inhibition (Homo sapiens [4]) was 66.8%. The inhibition at 200 µg/mL (Fusarium solani) was 0%, the inhibition of growth at 100 µg/mL (Lemna aequinoctialis [5]) was 25% and the IC50 [10] was 27.9 µM. For the same molecule, the inhibition at 200 µg/mL (Aspergillus flavus) was 20%, the LC50 at 24 h [6] was greater than 1240 µM and the inhibition (Homo sapiens [7]) was 61%. For the same molecule, the inhibition at 200 µg/mL (Nakaseomyces glabratus) was 0%, the inhibition (Homo sapiens [8]) was 53.5% and the inhibition of growth at 1000 µg/mL (Lemna aequinoctialis [9]) was 30%.
In the case of `O=C1Nc2ccc([N+](=O)[O-])cc2/C1=N/NC(=S)Nc1ccc(F)cc1`, the inhibition at 200 µg/mL (Microsporum canis) is reported as 20%, the inhibition of growth at 10 µg/mL (Lemna aequinoctialis [3]) is reported as 5% and the inhibition at 200 µg/mL (Candida albicans) is reported as 0%. For the same molecule, the Activity (Homo sapiens [11]) was “inactive”, the Activity (Homo sapiens [12]) was “inactive” and the inhibition at 200 µg/mL (Fusarium solani) was 20%. For the same molecule, the inhibition of growth at 100 µg/mL (Lemna aequinoctialis [5]) was 15%, the inhibition at 200 µg/mL (Aspergillus flavus) was 0% and the LC50 at 24 h [6] was greater than 1390 µM. The Activity (Homo sapiens [13]) was “inactive”, the inhibition at 200 µg/mL (Nakaseomyces glabratus) was 0% and the Activity (Homo sapiens [14]) was “inactive”. The Activity (Homo sapiens [15]) was “inactive” and the inhibition of growth at 1000 µg/mL (Lemna aequinoctialis [9]) was 20%.
`O=C1Nc2ccc([N+](=O)[O-])cc2/C1=N/NC(=S)Nc1ccccc1` gave an inhibition (Homo sapiens [1]) of 8.8%, an inhibition (Homo sapiens [2]) of 6% and an inhibition at 200 µg/mL (Microsporum canis) of 0%. For the same molecule, the inhibition of growth at 500 µg/mL (Lemna aequinoctialis [16]) was 20%, the inhibition of growth at 50 µg/mL (Lemna aequinoctialis [17]) was 10% and the inhibition at 200 µg/mL (Candida albicans) was 0%. For the same molecule, the inhibition (Homo sapiens [4]) was 5.8%, the inhibition at 200 µg/mL (Fusarium solani) was 0% and the inhibition at 200 µg/mL (Aspergillus flavus) was 20%. It also gave an LC50 at 24 h [6] greater than 1470 µM, an inhibition (Homo sapiens [7]) of 0.65% and an inhibition at 200 µg/mL (Nakaseomyces glabratus) of 0%. The inhibition of growth at 5 µg/mL (Lemna aequinoctialis [18]) was 5% and the inhibition (Homo sapiens [8]) was “inactive”.
`NC(N)=S` [THIOUREA] gave an inhibition (Homo sapiens [1]) of 8.16%, an inhibition (Homo sapiens [2]) of 94.3% and an inhibition (Homo sapiens [4]) of 14.5%. The IC50 [10] was 50.1 µM, the inhibition (Homo sapiens [7]) was 20.9% and the inhibition (Homo sapiens [8]) was 8.09%.
`COc1ccc(OC)c(NC(=S)N/N=C2\C(=O)Nc3ccc([N+](=O)[O-])cc32)c1` showed an inhibition (Homo sapiens [1]) of 34.5%, an inhibition (Homo sapiens [2]) of 11% and an inhibition at 200 µg/mL (Microsporum canis) of 20%. The inhibition of growth at 10 µg/mL (Lemna aequinoctialis [3]) was 25%, the inhibition at 200 µg/mL (Candida albicans) was 0% and the inhibition (Homo sapiens [4]) was 25.9%. It also gave an inhibition at 200 µg/mL (Fusarium solani) of 0%, an inhibition of growth at 100 µg/mL (Lemna aequinoctialis [5]) of 30% and an inhibition at 200 µg/mL (Aspergillus flavus) of 40%. It also gave an LC50 at 24 h [6] greater than 1240 µM, an inhibition (Homo sapiens [7]) of 15.6% and an inhibition at 200 µg/mL (Nakaseomyces glabratus) of 0%. It also gave an inhibition (Homo sapiens [8]) of 17.8% and an inhibition of growth at 1000 µg/mL (Lemna aequinoctialis [9]) of 35%.
